Results from patent US7687609B2, “Galectin-glycosaminoglycan complex and method for controlling galectin activity” (National Institute of Advanced Industrial Science and …, priority 2006, dated 2010).
“Also recorded” adds a separate entry of the source.

How the values were obtained:
Assay type in all cases: binding
Galectin-3 = target: T1, Galectin-3 (Homo sapiens, UniProt P17931); test: FAC affinity test on galectin-immobilized column; conditions: for V − V0 Value: pyridyl-aminated carbohydrate, galectin-3 immobilized 0.5 mg/ml, less than 5 μl = below interaction detection limit; for binding to galectin-3 (in words): text statement on the FAC results
T1 construct: made in house
T1 sequence (P17931 whole entry): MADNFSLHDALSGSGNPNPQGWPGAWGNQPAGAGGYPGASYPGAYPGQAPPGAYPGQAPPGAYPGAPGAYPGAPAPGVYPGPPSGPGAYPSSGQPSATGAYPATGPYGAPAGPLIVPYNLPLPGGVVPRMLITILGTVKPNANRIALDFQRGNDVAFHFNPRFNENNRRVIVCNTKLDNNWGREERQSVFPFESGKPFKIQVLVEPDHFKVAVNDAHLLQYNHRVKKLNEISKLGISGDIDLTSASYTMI
Experimental: (§1) Various galectin molecules-immobilized columns were prepared by the method described by Nakamura S, Yagi F, Totani K, Ito γ and Hirabayashi J in FEBS J., 272, 2784-2799 (2005), using NHS Sepharose (manufactured by Amersham Bioscience) as the carrier for immobilizing galectin molecules and in accordance with the instructions attached thereto (put in parentheses is immobilization concentration, mg galectin/ml carrier).
(§2) Each galectin molecule was immobilized onto the carrier at the following concentration; galectin-1 (0.8 mg/ml), galectin-3 (0.5 mg/ml), galectin-8N (3.6 mg/ml), galectin-8C (4.0 mg/ml), galectin-9N (3.6 mg/ml), galectin-9C (3.0 mg/ml). The carrier on which each galectin was immobilized was charged into a stainless steel miniature column (2 mm in inner diameter, 10 mm in length; manufactured by Shimadzu Corp.).
(§3) A high performance liquid chromatography (HPLC) system was equipped with a galectin molecule-immobilized column, and the test was carried out by the method described in Nakamura S, Yagi F, Totani K, Ito γ and Hirabayashi J in FEBS J., 272, 2784-2799 (2005).
(§4) As the negative control sample, pyridyl-aminated N-acetylglucosamine (PA-GlcNAc, manufactured by Takara Bio, pyridyl-aminated glycosaminoglycan-oligosaccharide sample control) or pyridyl-aminated pullulan (prepared by carrying out pyridylamination of standard pullulan manufactured by Shodex, pyridyl-aminated glycosaminoglycan polysaccharide sample control) was used, and a V−V0 value was calculated from their eluate volume (V0 value) measured by fluorescence detection and the eluate volume (V value) of the sample, namely pyridyl-aminated glycosaminoglycan carbohydrate, and this was used as the index of interaction strength (Protein, Nucleic Acid and Enzyme, 48(8), 1206-1212 (2003)).
(§5) V−V0 values of pyridyl-aminated glycosaminoglycans (HA, CH, DN, NAH, CSA, CSB, CSC, CSD, CSE, KS-I and KS-II) were calculated based on PA-GlcNAc, and V−V0 values of pyridyl-aminated glycosaminoglycan-oligosaccharides (G2K1, G1L1, G4L4, L2L2, L2L4, L4L4, SL2L4 and CH3 to CH12) based on pyridyl-aminated pullulan, respectively.
(§6) In this connection, when the calculated value of the V−V0 value was less than 5 μl, it was regarded as less than the interaction detection limit in this example.

Galectin-9C = target: T2, Galectin-9C (Homo sapiens, UniProt O00182); test: FAC affinity test on galectin-immobilized column; conditions: for V − V0 Value: pyridyl-aminated carbohydrate, galectin-9C immobilized 3.0 mg/ml, less than 5 μl = below interaction detection limit; for binding to galectin-9C (in words): text statement on the FAC results
T2 construct: N and C respectively represent N-terminal side carbohydrate-recognition domain and C-terminal side carbohydrate-recognition domain; made in house
T2 sequence (O00182 227-355 limits assumed): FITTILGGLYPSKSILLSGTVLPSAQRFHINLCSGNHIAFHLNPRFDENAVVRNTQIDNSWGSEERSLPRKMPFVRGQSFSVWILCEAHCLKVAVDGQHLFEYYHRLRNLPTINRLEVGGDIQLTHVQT
Experimental: as §1, §2, §3, §4, §5, §6

Galectin-8C = target: T3, Galectin-8C (Homo sapiens, UniProt O00214); test: FAC affinity test on galectin-immobilized column; conditions: pyridyl-aminated carbohydrate; galectin-8C immobilized 4.0 mg/ml; less than 5 μl = below interaction detection limit
T3 construct: N and C respectively represent N-terminal side carbohydrate-recognition domain and C-terminal side carbohydrate-recognition domain; made in house
T3 sequence (O00214 187-317 limits assumed): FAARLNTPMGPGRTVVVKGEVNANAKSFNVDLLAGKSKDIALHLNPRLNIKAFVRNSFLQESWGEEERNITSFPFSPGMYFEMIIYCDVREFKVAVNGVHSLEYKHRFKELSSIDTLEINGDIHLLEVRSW
Experimental: as §1, §2, §3, §4, §5, §6

Galectin-8N = target: T4, Galectin-8N (Homo sapiens, UniProt O00214); test: FAC affinity test on galectin-immobilized column; conditions: for V − V0 Value: pyridyl-aminated carbohydrate, galectin-8N immobilized 3.6 mg/ml, less than 5 μl = below interaction detection limit
T4 construct: N and C respectively represent N-terminal side carbohydrate-recognition domain and C-terminal side carbohydrate-recognition domain; made in house
T4 sequence (O00214 19-152 limits assumed): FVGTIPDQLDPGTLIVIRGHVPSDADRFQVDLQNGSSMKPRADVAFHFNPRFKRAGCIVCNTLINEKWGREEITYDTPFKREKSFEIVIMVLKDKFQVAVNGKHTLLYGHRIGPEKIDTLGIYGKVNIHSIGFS
Experimental: as §1, §2, §3, §4, §5, §6

Galectin-1 = target: T5, Galectin-1 (Homo sapiens, UniProt P09382); test: FAC affinity test on galectin-immobilized column; conditions: for V − V0 Value: pyridyl-aminated carbohydrate, galectin-1 immobilized 0.8 mg/ml, less than 5 μl = below interaction detection limit
T5 construct: made in house
T5 sequence (P09382 whole entry): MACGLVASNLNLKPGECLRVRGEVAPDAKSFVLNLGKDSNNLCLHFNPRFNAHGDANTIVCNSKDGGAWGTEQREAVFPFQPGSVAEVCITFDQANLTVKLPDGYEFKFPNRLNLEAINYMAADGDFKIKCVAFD
Experimental: as §1, §2, §3, §4, §5, §6

Galectin-9N = target: T6, Galectin-9N (Homo sapiens, UniProt O00182); test: FAC affinity test on galectin-immobilized column; conditions: for V − V0 Value: pyridyl-aminated carbohydrate, galectin-9N immobilized 3.6 mg/ml, less than 5 μl = below interaction detection limit; for binding to galectin-9N (in words): text statement on the FAC results
T6 construct: N and C respectively represent N-terminal side carbohydrate-recognition domain and C-terminal side carbohydrate-recognition domain; made in house
T6 sequence (O00182 17-148 limits assumed): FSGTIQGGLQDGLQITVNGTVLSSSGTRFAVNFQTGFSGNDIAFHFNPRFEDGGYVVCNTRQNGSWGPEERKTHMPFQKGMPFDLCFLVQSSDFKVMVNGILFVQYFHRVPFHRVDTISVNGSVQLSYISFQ
Experimental: as §1, §2, §3, §4, §5, §6

[1] = tested on: tested galectin molecules (galectin-1, 3, 8N, 8C, 9N and 9C); test: FAC affinity test, statements on the whole panel of tested galectins; conditions: Table 3, whole galectin panel
Source text: Using FAC, the present inventors have conducted a comprehensive analysis of the interactions between various galectin molecules (galectin-1, 3, 8N, 8C, 9N and 9C; N and C respectively represent N-terminal side carbohydrate-recognition domain and C-terminal side carbohydrate-recognition domain)-immobilized columns and various fluorescence-labeled glycosaminoglycan molecules. As a result, novel affinity was found by the combination of specific galectin molecules and glycosaminoglycan molecules to thereby accomplish the present invention.
as §3, §4, §6

[2] = text statement on the FAC results

Row | Compound | V − V0 Value (Galectin-3) [µL] | binding to galectin-3 (in words) (Galectin-3; listed as chondroitin) | V − V0 Value (Galectin-9C) [µL] | V − V0 Value (Galectin-8C) [µL] | V − V0 Value (Galectin-8N) [µL] | V − V0 Value (Galectin-1) [µL] | V − V0 Value (Galectin-9N) [µL] | binding to galectin-9N (in words) (Galectin-9N; listed as chondroitin) | binding to the tested galectin molecules (in words) [1] | binding to galectin-8N (in words) (Galectin-8N; [2]) | binding to galectin-3 (in words) (Galectin-3) | binding to galectin-9N (in words) (Galectin-9N) | binding to galectin-9C (in words) (Galectin-9C) | binding to galectin-1 (in words) (Galectin-1; [2])
1 | Chondroitin | 19.2 ± 2.2 | length-dependent binding affinity | <5.0 | <5.0 | <5.0 | <5.0 | 171.4 ± 19.0 | particularly strong binding affinity | – | – | bind | bind | – | –
2 | chondroitin sulfate E [CSE, reference compound] | <5.0 | – | <5.0 | <5.0 | <5.0 | <5.0 | <5.0 | – | did not bind | – | – | – | – | –
3 | CC(=O)N[C@H]1[C@H](O[C@H]2[C@@H](O)[C@@H](CO)O[C@@H](O[C@H]3[C@H](O)[C@@H](NC(C)=O)C(O)O[C@@H]3CO)[C@@H]2O)O[C@H](CO)[C@@H](O)[C@@H]1O (stereo partly drawn) [G1L1, GlcNAc β1-3 Gal β1-4 GlcNAc] | 14.2 ± 1.3 | – | <5.0 | <5.0 | <5.0 | <5.0 | 13.6 ± 0.5 | – | bound to various galectin molecules | – | showed binding affinity | showed binding affinity | – | –

Second part, led by results:

Row | V − V0 Value (Galectin-3) [µL] | binding to galectin-3 (in words) (Galectin-3; listed as chondroitin) | V − V0 Value (Galectin-9C) [µL] | V − V0 Value (Galectin-8C) [µL] | V − V0 Value (Galectin-8N) [µL] | V − V0 Value (Galectin-1) [µL] | V − V0 Value (Galectin-9N) [µL] | binding to galectin-9N (in words) (Galectin-9N; listed as chondroitin) | binding to the tested galectin molecules (in words) [1] | binding to galectin-8N (in words) (Galectin-8N; [2]) | Compound | binding to galectin-3 (in words) (Galectin-3) | binding to galectin-9N (in words) (Galectin-9N) | binding to galectin-9C (in words) (Galectin-9C) | binding to galectin-1 (in words) (Galectin-1; [2])
4 | <5.0 | – | <5.0 | <5.0 | <5.0 | <5.0 | <5.0 | – | did not bind | – | N-acetylheparosan [NAH, reference compound] | – | – | – | –
5 | 10.1 ± 1.1 | – | 6.4 ± 1.0 | <5.0 | <5.0 | <5.0 | 10.4 ± 0.3 | – | – | – | cartilage type keratan sulfate [KS-II] | weaker than their binding with KS-I; also recorded: showed binding affinity | weaker than their binding with KS-I; also recorded: showed binding affinity | weaker than their binding with KS-I; also recorded: showed binding affinity | –
6 | 21.7 ± 4.3 | – | 12.2 ± 1.0 | <5.0 | <5.0 | 10.3 ± 4.5 | 105.3 ± 22.6 | – | – | showed binding affinity | cornea type keratan sulfate [KS-I] | bound; also recorded: showed binding affinity | bound; also recorded: showed binding affinity | bound; also recorded: showed binding affinity | bound; also recorded: showed binding affinity
